# Source: ChEMBL document CHEMBL1132071, “Benzenesulfonamide derivatives of 2-substituted 4H-3,1-benzoxazin-4-ones and benzthiazin-4-ones as inhibitors of complement C1r protease” (Bioorg Med Chem Lett, 1999)
# pIC50: −log10 of the molar value.
# What was measured:
# [1] = (§1) Inhibitory activity against hemolysis at 200 uM using suspension of sheep erythrocytes sensitized with antibodies to sheep erythrocytes; format: functional; conditions: Ovis aries
# [2] = target: T1, Complement C1r subcomponent (Homo sapiens, UniProt P00736); assay: In vitro inhibition of purified human C1r protease.
# T1 sequence (P00736 whole entry): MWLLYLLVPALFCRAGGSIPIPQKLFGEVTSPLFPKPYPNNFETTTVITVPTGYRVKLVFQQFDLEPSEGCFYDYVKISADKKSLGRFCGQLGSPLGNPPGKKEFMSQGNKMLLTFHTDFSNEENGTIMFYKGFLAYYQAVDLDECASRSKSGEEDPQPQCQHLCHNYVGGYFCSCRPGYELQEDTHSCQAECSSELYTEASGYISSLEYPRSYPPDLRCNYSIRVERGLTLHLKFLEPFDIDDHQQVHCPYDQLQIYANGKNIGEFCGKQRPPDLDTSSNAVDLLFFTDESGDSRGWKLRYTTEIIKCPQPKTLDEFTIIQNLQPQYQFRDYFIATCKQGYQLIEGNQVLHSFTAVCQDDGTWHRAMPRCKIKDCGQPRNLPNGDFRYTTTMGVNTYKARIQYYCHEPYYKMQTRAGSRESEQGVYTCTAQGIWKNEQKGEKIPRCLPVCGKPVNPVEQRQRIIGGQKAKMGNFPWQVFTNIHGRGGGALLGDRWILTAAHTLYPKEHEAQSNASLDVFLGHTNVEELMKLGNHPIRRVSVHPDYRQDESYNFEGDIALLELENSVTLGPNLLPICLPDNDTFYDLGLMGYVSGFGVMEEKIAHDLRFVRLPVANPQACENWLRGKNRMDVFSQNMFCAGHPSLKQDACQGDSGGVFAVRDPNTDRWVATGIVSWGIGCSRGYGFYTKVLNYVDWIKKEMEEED
# [3] = target: T1, Complement C1r subcomponent; assay: Evaluated in vitro for inhibitory activity against purified human C1r protease incubated in buffer for 60 minutes
# [4] = Percent of inhibition at 200 uM was determined in hemolysis assay using suspension of sheep erythrocytes sensitized with antibodies to sheep erythrocytes; format: functional, Ovis aries; set-up: scale not given: the % may be the effect or the level left
# [5] = target: T2, Complement C1r subcomponent (Homo sapiens) (UniProt P00736); assay: Compound was evaluated for inhibitory activity against purified human C1r protease at 62 uM was reported after 60 min.
# T2 sequence (whole entry): T1 sequence (P00736 whole entry)
# [6] = Compound was evaluated for inhibitory activity in hemolysis assay using suspension of sheep erythrocytes sensitized with antibodies to sheep erythrocytes; format: functional, Ovis aries
# [7] = as §1; format: functional, Ovis aries; set-up: scale not given: the % may be the effect or the level left
# [8] = target: T2, Complement C1r subcomponent (Homo sapiens); assay: Compound was evaluated for inhibitory activity against purified human C1r protease at 31.2 uM
# [9] = target: T2, Complement C1r subcomponent (Homo sapiens); assay: Compound was evaluated for inhibitory activity against purified human C1r protease at 15 uM concentration
pIC50 [2],pIC50 [3],SMILES,further results
6.15,5.22,COc1ccc(S(=O)(=O)N(C)c2nc3ccccc3c(=O)o2)cc1,inhibition at 200 µM [1]: 80%
–,–,O=c1oc(Nc2ccccc2I)nc2cc(C(F)(F)F)ccc12,Control [4]: 146%
4.70,–,CN(c1nc2ccccc2c(=O)o1)S(=O)(=O)c1ccc(C#N)cc1,inhibition [5]: 30%
< 4.22,< 4.22,CN(c1nc2ccccc2c(=O)o1)S(=O)(=O)c1ccc(C(C)(C)C)cc1,–
5.11,–,Cc1ccc(S(=O)(=O)N(C)c2nc3ccccc3c(=O)o2)cc1,inhibition [5]: 40%
5.12,< 4.21,CN(c1nc2ccccc2c(=O)o1)S(=O)(=O)c1c(Cl)cccc1Cl,–
5.82,5.52,CN(c1nc2ccccc2c(=O)o1)S(=O)(=O)c1ccc(NC(=N)N)cc1,pIC50 [6]: 4.74
4.51,–,CN(c1nc2ccccc2c(=O)o1)S(=O)(=O)c1ccc([N+](=O)[O-])cc1,–
4.52,4.21,CCN(c1nc2ccccc2c(=O)o1)S(=O)(=O)c1ccc(Cl)cc1,–
4.62,4.24,CN(c1nc2ccccc2c(=O)o1)S(=O)(=O)c1cccc(Cl)c1,inhibition at 200 µM [1]: 49%
5.40,5.22,CN(c1nc2ccccc2c(=O)o1)S(=O)(=O)c1ccccc1,Control [7]: 162%
< 4.20,–,CN(c1nc2ccccc2c(=O)s1)S(=O)(=O)c1ccccc1,Control [7]: 162%
–,–,N=C(N)Nc1ccc(C(=O)Oc2ccc3cc(C(=N)N)ccc3c2)cc1 [NAFAMOSTAT],pIC50 [6]: 4.78
5.49,5.08,CCN(c1nc2ccccc2c(=O)o1)S(=O)(=O)c1ccccc1,inhibition at 200 µM [1]: 86%
–,< 4.21,CN(c1nc2ccccc2c(=O)o1)S(=O)(=O)c1ccc(Cl)cc1,inhibition [8]: 40%
< 4.20,–,COc1ccc(S(=O)(=O)N(C)c2nc3ccccc3c(=O)s2)cc1,–
5.22,5.00,CN(c1nc2ccccc2c(=O)o1)S(=O)(=O)c1cccc2ccccc12,inhibition at 200 µM [1]: 56%
–,< 4.20,CN(c1nc2ccccc2c(=O)o1)S(=O)(=O)c1ccc(Cl)c(Cl)c1,inhibition [9]: 20%
5.55,4.60,CN(c1nc2ccccc2c(=O)o1)S(=O)(=O)c1ccccc1Br,–
5.15,4.21,CN(c1nc2ccccc2c(=O)o1)S(=O)(=O)c1ccc(N)cc1,pIC50 [6]: 5.10
